The values that follow come from PubChem BioAssay AID1949 (Southern Research Institute, 2009).

The test system of this experiment is M. tuberculosis H37Rv growth inhibition. As to the kind of experiment: Mycobacterium tuberculosis H37Rv growth inhibition, cell based, confirmatory dose response (AID 1949).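 Further: bacteria grown 7 days with compound before Alamar blue readout.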

Each structure is given as a SMILES string. Converted amounts (≈) assume the structure as drawn. Results filed as inconclusive are left out. The source made the active and inactive calls. How the calls were made is not given here.

Take `O=C(CC(O)(C(F)(F)F)C(F)(F)F)Nc1cc(Cl)ccc1Cl`: the half-inhibitory concentration (IC50) (in general, the concentration at which inhibition is half-maximal) is 5.84 µg/mL (≈ 15.8 µM). Next, `CC(C)(C)c1ccc(OCC(=O)Nc2ccc(F)c(Cl)c2)cc1`: 13.7 µg/mL (≈ 40.9 µM); `O=C(OCc1c(Cl)cccc1Cl)c1cc2ccccc2oc1=O`: > 50 µg/mL (inactive). For `c1ccc(-c2nnc3sc(-c4cc5ccccc5o4)nn23)cc1` the value was 4.89 µg/mL (≈ 15.4 µM); for `CC(C)(C)C(=O)Nc1nc2c(Cl)c(Cl)ccc2s1`, 7.02 µg/mL (≈ 23.2 µM); for `Cc1ccc(C(=O)Nc2nc(C(C)(C)C)cs2)cc1[N+](=O)[O-]`, 27.2 µg/mL (≈ 85.3 µM). Regarding `Cc1ccc(NC(=O)CSc2ccc(F)cc2)cc1`, the concentration for half-maximal inhibition (IC50) is 12.3 µg/mL (≈ 44.9 µM). Next, `Oc1ccc(/C=C/c2nc(-c3ccccc3O)n(-c3ccccc3)n2)cc1`: 5.63 µg/mL (≈ 15.8 µM); `Cc1ccc2nc(-c3ccncc3)cc(C(=O)Nc3ccncc3)c2c1`: > 50 µg/mL (inactive). For `Cc1ccc(-c2nnc3sc(Cc4ccccc4)nn23)cc1` the value was less than 0.1 µg/mL; for `O=C(Nc1cccc(Cl)c1)Nc1ccc(N2CCOCC2)c(C(F)(F)F)c1`, 3.59 µg/mL (≈ 8.98 µM). For `COc1cc(CNCc2cccnc2)ccc1OCc1ccc(Cl)cc1Cl` the value was 8.24 µg/mL (≈ 20.4 µM). In the case of `Cc1ccccc1NC(=O)C(Cc1ccccc1)NC(=O)c1ccccc1` (stereo unspecified), the IC50 is 37.5 µg/mL (≈ 105 µM).

With `COc1ccc(-c2cc(C(F)F)n3ncc(C(=O)NCCCn4ccnc4)c3n2)cc1`, the IC50 was 8.99 µg/mL (≈ 21.1 µM). For `CCOC(=O)c1c2c(n(C)c1CN(CC)CC)C(=O)C(=O)c1ccc(Br)cc1-2` the value was 0.17 µg/mL (≈ 0.38 µM); for `COc1ccc(C(C)(C)C)cc1NC(=S)Nc1ccc(Cl)c(Cl)c1`, 1.43 µg/mL (≈ 3.73 µM). Next, `COc1cc(CNC23CC4CC(CC(C4)C2)C3)ccc1OCc1ccccc1`: > 50 µg/mL (inactive). For `COC(=O)c1ccc(CSc2nnc(-c3ccccc3)o2)o1` the value was > 50 µg/mL (inactive). `CCOC(=O)Cc1c(C)nc2c(-c3cccc(Br)c3)c[nH]n2c1=O`: the IC50 was 1.69 µg/mL (≈ 4.33 µM). For the compound `CCOc1cc(CNC23CC4CC(CC(C4)C2)C3)ccc1OCc1cccs1`, the IC50 was 0.82 µg/mL (≈ 2.06 µM). Take `Cc1cc(C)c(-n2c(O)c(/C=C3\C=CC=N3)c(=O)[nH]c2=O)c(C)c1`: the IC50 is 0.13 µg/mL (≈ 0.402 µM).

For `COc1ccc(-c2[nH]c(-c3ccc([N+](=O)[O-])cc3)nc2-c2ccccc2)cc1`, the IC50 was 2.33 µg/mL (≈ 6.27 µM). For `NC(=O)CSc1nnc(SCc2ccc(F)cc2)s1` the value was 9.02 µg/mL (≈ 28.6 µM); for `Cc1ccc(-n2cc(-c3ccccc3)c3c(NCc4cccnc4)ncnc32)cc1`, 3.25 µg/mL (≈ 8.3 µM). Next, `CCOc1ccc(Nc2nc(-c3sc(C)nc3C)cs2)cc1`: 3.38 µg/mL (≈ 10.2 µM). Next, `O=[N+]([O-])/C=C/c1ccc(-c2ccc(F)cc2)o1`: 10.1 µg/mL (≈ 43.3 µM); `Cc1ccc(C(=O)N2CCN(c3ccc(NC(=O)COc4c(C)cc(C)cc4Cl)cc3)CC2)cc1`: 8.74 µg/mL (≈ 17.8 µM). As to `O=C(c1ccccc1)c1ccc(OCC(O)Cn2cnc3ccccc32)cc1` (stereo unspecified), the IC50 was 1.51 µg/mL (≈ 4.05 µM).

As for `CCOC(=O)N1CCN(CCC(=O)c2ccc(Cl)cc2)CC1`, the concentration for half-maximal inhibition (IC50) is 2.45 µg/mL (≈ 7.54 µM).

Consider `CC(C)(C)c1ccc(-c2nc(-c3ccncc3)no2)cc1`, for which the IC50 is > 50 µg/mL (inactive).

In the case of `COc1ccc(NC(=S)NC(=O)CCc2ccccc2)cc1`, the IC50 was 1.92 µg/mL (≈ 6.11 µM). Turning to `O=C(Nc1ccc(F)cc1)c1ccc(C#CC2(O)CCCCC2)cc1`, the 50% inhibitory concentration (IC50) was 10.6 µg/mL (≈ 31.4 µM). Regarding `CCc1cc2c(=O)c(-c3ccc4c(c3)OCCCO4)coc2cc1OC(C)C(=O)OC` (stereo unspecified), the IC50 is 39.9 µg/mL (≈ 94.1 µM). Next, `O=C(Oc1cccc2cccnc12)c1ccco1`: 0.75 µg/mL (≈ 3.14 µM).

In the case of `O=C(CC12CC3CC(CC(C3)C1)C2)Nc1cccc(C(F)(F)F)c1`, the IC50 was 0.97 µg/mL (≈ 2.88 µM). Next, `Cc1ccc(Cl)cc1NC(=O)CC(O)(C(F)(F)F)C(F)(F)F`: 7.04 µg/mL (≈ 20.1 µM). Next, `CC(C)(C)c1cc(Cl)ccc1OCCCCn1ccnc1`: 1.41 µg/mL (≈ 4.6 µM); `CCc1cc2c(=O)c(Oc3ccc(-c4ccccc4)cc3)coc2cc1OC(C)=O`: 5.89 µg/mL (≈ 14.7 µM).

As for `CCOC(=O)C1=C(c2ccc(OC)cc2)C(=O)c2ccccc2C1=O`, the IC50 was 6.6 µg/mL (≈ 19.6 µM).

For `CN1CCN(c2nc(N3CCCc4ccccc43)nc(N3CCCc4ccccc43)n2)CC1`, the IC50 is 5.33 µg/mL (≈ 12.1 µM).

In the case of `COc1cc([N+](=O)[O-])ccc1NC(=O)c1cc(Cl)ccc1O`, the IC50 was 0.12 µg/mL (≈ 0.372 µM). For `CCOc1ccc(NC(=S)Nc2ccc3nsnc3c2)cc1` the value was 0.52 µg/mL (≈ 1.57 µM). For `CC(C)C(=O)N1CCN(c2ccccc2NC(=O)c2ccc([N+](=O)[O-])o2)CC1` the value was 1.95 µg/mL (≈ 5.05 µM). With `Cc1ccc(-c2nn(-c3ccccc3)cc2CNCc2ccccc2)cc1`, the IC50 was 1.11 µg/mL (≈ 3.14 µM). Next, `COc1cccc(N2CCN(Cc3nc(N)nc(Nc4ccc(C)c(C)c4)n3)CC2)c1`: 2.82 µg/mL (≈ 6.72 µM); `CCOC(=O)COc1ccc2c(=O)c(Oc3ccc(F)cc3)c(C)oc2c1`: 1.51 µg/mL (≈ 4.06 µM); `Cc1ccc2nc(-c3ccc(N/C(N)=N\c4nc(C)cc(C)n4)cc3)sc2c1`: 25.7 µg/mL (≈ 66.2 µM). For `O=C(Nc1nccs1)c1cc(Cl)cc(Cl)c1` the value was 10.2 µg/mL (≈ 37.2 µM); for `N#Cc1c(NC(=S)NC(=O)c2ccc(Cl)cc2Cl)sc2c1CCCCC2`, 3.36 µg/mL (≈ 7.92 µM); for `CCc1ccc(OCC(=O)NC2CCCCC2)c(Br)c1`, > 50 µg/mL (inactive). For `O=c1c2oc3cccc4c3n(c=2c(=O)c2ccccc12)CCC4` the value was 5.4 µg/mL (≈ 17.8 µM). In the case of `O=C(Nc1ccc(OC(F)(F)F)cc1)Nc1cccc([N+](=O)[O-])c1`, the IC50 is 0.19 µg/mL (≈ 0.557 µM). For `Cc1nn(-c2ccccc2)c(C)c1N1C(=O)c2cccc3cc([N+](=O)[O-])cc(c23)C1=O` the value was 0.15 µg/mL (≈ 0.364 µM); for `COC(=O)c1ccc(NC(=O)CSc2nnc(-c3ccc(Br)cc3)o2)cc1`, 5.83 µg/mL (≈ 13 µM). Next, `COC(=O)c1ccc(COC(=O)c2ccccc2Cl)cc1`: 1.69 µg/mL (≈ 5.55 µM); `O=C(NCc1ccc2c(c1)OCO2)c1cnn2c1NC(c1cccs1)CC2C(F)(F)F` (stereo unspecified): 0.13 µg/mL (≈ 0.289 µM). For `C#Cc1cccc(NC(=O)COc2ccc(Cl)cc2)c1` the value was 8.18 µg/mL (≈ 28.6 µM); for `Oc1ccc(Br)cc1C1=NNC(c2ccc(F)cc2)C1` (stereo unspecified), 2.89 µg/mL (≈ 8.62 µM); for `CCOc1cc(C(=O)O/N=C(\N)Cc2ccc(Cl)cc2Cl)cc(OCC)c1OCC`, 38 µg/mL (≈ 83.5 µM). For `COC(=O)COc1ccc(-c2ccccc2)cc1`, the IC50 was 0.22 µg/mL (≈ 0.908 µM). Next, `CN(c1ccccc1)c1ccc([N+](=O)[O-])c2nonc12`: less than 0.1 µg/mL.

In the case of `Fc1ccc(Nc2nc(-c3ccccn3)cs2)cc1`, the IC50 was 0.28 µg/mL (≈ 1.03 µM). Next, `Oc1c(CN2CCN(c3ccc(F)cc3)CC2)cc(Cl)c2cccnc12`: 1.07 µg/mL (≈ 2.88 µM); `COC(=O)CSc1nc2sc3c(c2c(=O)n1Cc1ccccc1)CCC(C(C)(C)C)C3` (stereo unspecified): > 50 µg/mL (inactive); `O=C1c2cccc3c([N+](=O)[O-])ccc(c23)C(=O)N1Cc1ccccc1`: 46 µg/mL (≈ 138 µM). For `Cc1ccc(N2CC(C(=O)OCc3cccc(C(=O)Oc4ccccc4)c3)CC2=O)cc1` (stereo unspecified) the value was > 50 µg/mL (inactive); for `CSc1nsc(SCC(=O)N2CCc3ccccc32)n1`, 12 µg/mL (≈ 37 µM); for `CC(=O)Nc1nc2ccccc2n1CCOc1ccccc1`, 2.94 µg/mL (≈ 9.95 µM). For `O=C(OCc1nnc(-c2ccccc2)o1)c1cc(-c2cccs2)nc2ccccc12` the value was 3.03 µg/mL (≈ 7.33 µM); for `CCOC(=O)COc1ccc(S(=O)(=O)N2CCc3ccccc3C2)cc1`, 0.64 µg/mL (≈ 1.7 µM); for `Cc1cc(C)nc(/N=C(\N)Nc2ccccc2Sc2ccccc2)n1`, > 50 µg/mL (inactive). With `Cc1cccc(C(=O)Nc2nc3ccccc3[nH]2)c1`, the half-inhibitory concentration (IC50) is 0.74 µg/mL (≈ 2.94 µM). With `Cn1c2c(c(=O)n(C)c1=O)C(C(F)(F)F)(C(F)(F)F)N=C(c1ccc(Cl)cc1)N2`, the IC50 is 46.1 µg/mL (≈ 105 µM). For `Cc1ccc(NC(=O)C(Cl)Cl)cc1[N+](=O)[O-]` the value was 2.18 µg/mL (≈ 8.29 µM); for `CN1CCN(c2ccc(C(=O)Nc3cccc(Cl)c3)cc2[N+](=O)[O-])CC1`, 4.41 µg/mL (≈ 11.8 µM).

In the case of `CCC(=O)Oc1ccc(-c2nc3ccccc3c(=O)o2)cc1`, the IC50 is > 50 µg/mL (inactive). For `CSc1nc2nc3c(c(=O)n2[nH]1)CCCC3` the value was 2.96 µg/mL (≈ 12.5 µM); for `CCOC(=O)COc1ccc(C(=O)Nc2ccc(F)cc2)cc1`, less than 0.1 µg/mL. For `Cn1c(NC(=S)Nc2ccccc2)nc2ccccc21` the value was 0.35 µg/mL (≈ 1.24 µM). For `CCCc1ccc(OCC(=O)Nc2ccc(Cl)cc2Cl)cc1` the value was 2.86 µg/mL (≈ 8.46 µM); for `O=C(Oc1c(Cl)cc(Cl)c2cccnc12)c1cc(S(=O)(=O)N2CCCCC2)ccc1Cl`, 0.48 µg/mL (≈ 0.96 µM). Consider `O=C(C#Cc1ccccc1)c1ccc([N+](=O)[O-])cc1`, for which the IC50 was > 50 µg/mL (inactive). For `O=[N+]([O-])c1ccc(N2CCN(C(=S)NCc3ccc(Cl)cc3)CC2)cc1` the value was 2.58 µg/mL (≈ 6.6 µM). Next, `CCC(C)Oc1ccc(C(=O)NC(=S)Nc2ccc(NC(=O)c3ccco3)cc2)cc1` (stereo unspecified): 0.36 µg/mL (≈ 0.823 µM); `Cn1nc([N+](=O)[O-])nc1Sc1nnc(-c2cccnc2)o1`: 2.49 µg/mL (≈ 8.16 µM); `CC(C)(C)c1ccc(C(=O)NC(=S)N2CCCC2)cc1`: 1.35 µg/mL (≈ 4.65 µM). In the case of `CC1CCN(c2ccc(N)cc2)CC1`, the IC50 is 5.71 µg/mL (≈ 30 µM).

`O=C(CCC(=O)OCc1cccc(C(=O)Oc2ccccc2)c1)Nc1cccc2ccccc12`: the IC50 was 12.6 µg/mL (≈ 27.8 µM). Next, `CC(=O)c1cccc(Nc2nc(-c3ccccn3)cs2)c1`: 0.98 µg/mL (≈ 3.32 µM); `Cc1ccc2nsnc2c1S(=O)(=O)Nc1cccc2cccnc12`: 0.31 µg/mL (≈ 0.87 µM). On to `N#CSc1ccc(NC(=O)CSc2nc3ccccc3[nH]2)cc1`, for which the IC50 was 6.24 µg/mL (≈ 18.3 µM). Next, `O=C(CSc1ccc(F)cc1)Nc1ccc2c(c1)OCCO2`: 7.01 µg/mL (≈ 22 µM); `Cc1cc([N+](=O)[O-])ccc1NC(=O)Nc1cccc(C(F)(F)F)c1`: 0.24 µg/mL (≈ 0.707 µM). For `Cc1cccc(NC(=S)NC(=O)CC23CC4CC(CC(C4)C2)C3)c1` the value was 2.89 µg/mL (≈ 8.44 µM); for `Cc1ccc(-c2csc(Nc3ccc(S(N)(=O)=O)cc3)n2)cc1`, 2.52 µg/mL (≈ 7.29 µM); for `COC(=O)COc1ccc2c(=O)c(-c3ccccc3Cl)coc2c1`, 0.4 µg/mL (≈ 1.16 µM). Next, `Clc1ccc(OCCCCn2ccnc2)c(Br)c1`: 1.51 µg/mL (≈ 4.58 µM); `CCC(OC(C)=O)c1ccc(OC(C)=O)c(OC)c1` (stereo unspecified): 1.43 µg/mL (≈ 5.37 µM).

As for `O=C(OCc1c(F)cccc1Cl)c1cc2ccccc2oc1=O`, the IC50 is > 50 µg/mL (inactive). Next, `CC(C)OC(=O)CSc1nnc(-c2ccc(N(C)C)cc2)o1`: less than 0.1 µg/mL; `COc1ccc(CNc2ccccc2O)cc1OC`: 16.3 µg/mL (≈ 62.7 µM).
